For one experiment, the species on record is Homo sapiens. Put plainly: Inhibitory activity against proliferation of human microvascular endothelial cell.
For `CC(C)SCC[C@@H](N)[C@H](O)C(=O)NNC(=O)c1cccc(Cl)c1`, the IC50 stood at 0.1 µM. This lies in the sub-micromolar range.

The target in a further experiment is Methionine aminopeptidase 2 (Homo sapiens, UniProt P50579). The experiment is described as follows: Inhibitory activity against human methionine aminopeptidase-2.
Methionine aminopeptidase 2, sequence (P50579 whole entry): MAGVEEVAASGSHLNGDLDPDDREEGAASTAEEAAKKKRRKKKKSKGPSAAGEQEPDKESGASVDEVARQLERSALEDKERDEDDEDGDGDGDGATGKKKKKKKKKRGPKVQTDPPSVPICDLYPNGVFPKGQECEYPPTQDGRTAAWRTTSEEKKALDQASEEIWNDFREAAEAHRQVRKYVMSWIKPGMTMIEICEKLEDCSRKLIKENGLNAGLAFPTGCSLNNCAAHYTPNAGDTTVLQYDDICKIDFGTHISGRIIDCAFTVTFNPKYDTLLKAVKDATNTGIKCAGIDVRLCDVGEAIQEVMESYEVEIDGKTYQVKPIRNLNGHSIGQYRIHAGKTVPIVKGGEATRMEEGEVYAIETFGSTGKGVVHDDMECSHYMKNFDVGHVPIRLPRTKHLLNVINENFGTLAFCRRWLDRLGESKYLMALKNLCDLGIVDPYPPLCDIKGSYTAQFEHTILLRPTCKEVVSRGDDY
With `CC(C)[C@H](C)NC(=O)[C@@H](O)[C@H](N)CC1CCCCC1`, the half-maximal inhibitory concentration (IC50) is > 100 µM.

The target of a further experiment is Methionine aminopeptidase 1 (Homo sapiens, UniProt P53582). Put plainly: Inhibitory activity against human methionine aminopeptidase-1.
Molecule `CCCSC[C@@H](N)[C@H](O)C(=O)NNc1ccc(C)cc1` had an IC50 of 5 µM.

In the case of `CCOC(=O)[C@@H](C)NC(=O)[C@@H](O)[C@H](N)CC1CCCCC1`, the IC50 was > 100 µM.

Turning to `N[C@H](CC1CCCCC1)[C@H](O)C(=O)NOc1ccccc1`, the IC50 amounted to 20 µM.

As for `CN(Cc1cccc2ccccc12)C(=O)[C@@H](O)[C@H](N)CCc1ccccc1`, the IC50 is > 100 µM.

For the molecule `CCSCC[C@@H](N)[C@H](O)C(=O)NOc1ccccc1`, the IC50 was found to be 1.3 µM.

With `CC(C)SCC[C@@H](N)[C@H](O)C(=O)N[C@@H](CO)c1ccccc1`, the IC50 stood at 32 µM.

The molecule `Cc1ccc(NNC(=O)[C@@H](O)[C@H](N)CSCC(C)C)cc1` registered an IC50 of 6.8 µM.

`CC(C)CSC[C@@H](N)[C@H](O)C(=O)NCCc1ccc(Cl)cc1Cl`: the concentration for half-maximal inhibition (IC50) was determined as 53 µM.

With `N[C@H](CCc1ccccc1)[C@H](O)C(=O)N[C@@H](CO)c1ccccc1`, it took 75 µM to reach half-maximal inhibition (IC50).

The molecule `CCOC(=O)[C@H](C)NC(=O)C(O)[C@H](N)CSC(C)(C)C` (stereo partly specified) yielded an IC50 of 14 µM. Compared with the last molecule, the IC50 is about 5.4-fold lower.

`CCSCC[C@@H](N)[C@H](O)C(=O)N(C)Cc1cccc2ccccc12` displayed an IC50 of 12 µM.

`CCOC(=O)[C@H](C)NC(=O)C(O)[C@H](N)CSC(C)C` (stereo partly specified): the IC50 is 13 µM.

For the molecule `CCSCC[C@@H](N)[C@H](O)C(=O)NNc1ccc(C)cc1`, the IC50 stood at 1.3 µM.

Molecule `CCCSC[C@@H](N)[C@H](O)C(=O)N[C@@H](CO)c1ccccc1` showed an IC50 of 12 µM. Compared with the last molecule, the IC50 is about 9.2-fold higher.

On to `CCCC[C@@H](N)C(O)C(=O)N[C@@H](C)C(=O)OCC` (stereo partly specified), for which 100 µM corresponded to half-maximal inhibition (IC50).

As to `N[C@H](CC1CCCCC1)[C@H](O)C(=O)NNC(=O)c1cc(Cl)ccc1Cl`, the IC50 is > 100 µM.

As to `CCOC(=O)[C@H](C)NC(=O)C(O)[C@H](N)CCSC` (stereo partly specified), half-maximal inhibition (IC50) required 63 µM.

In the case of `CCOC(=O)[C@H](C)NC(=O)C(O)[C@H](N)CSCC1CCCCC1` (stereo partly specified), the 50% inhibitory concentration (IC50) was > 100 µM.

`N[C@H](CC1CCCCC1)[C@H](O)C(=O)N[C@@H](CO)c1ccccc1` returned an IC50 of 68 µM. This counts as double-digit micromolar.

As for `CC(NC(=O)[C@@H](O)[C@H](N)CC1CCCCC1)c1ccc2ccccc2c1` (stereo partly specified), 5.3 µM corresponded to half-maximal inhibition (IC50).

As to `CCOC(=O)[C@H](C)NC(=O)C(O)[C@H](N)CCc1ccccc1` (stereo partly specified), the midpoint of inhibition, the IC50, lay at 101 µM.

`N[C@H](CC1CCCCC1)[C@H](O)C(=O)NNc1cccc2ccccc12`: the IC50 stood at 58 µM. Compared with the last molecule, the IC50 is about 1.7-fold lower.

For `C[C@H](NC(=O)[C@@H](O)[C@H](N)CSCC1CCCCC1)c1cccc2ccccc12`, the IC50 is 45 µM.

`CCSCC[C@@H](N)[C@H](O)C(=O)NNC(=O)c1cccc(Cl)c1` came in with an IC50 of 8.7 µM. This IC50 lies about 5.2-fold lower than the previous one.

Regarding `CCCSC[C@@H](N)[C@H](O)C(=O)NNC(=O)c1cccc(Cl)c1`, the IC50 amounted to 11 µM. The IC50 values of the last two molecules are within 1.5-fold of each other.

For `CCOC(=O)C(C)(C)NC(=O)[C@@H](O)[C@H](N)CC1CCCCC1`, the IC50 was > 100 µM.

Regarding `CCOC(=O)[C@H](C)NC(=O)C(O)[C@H](N)CSCC(C)C` (stereo partly specified), 66 µM corresponded to half-maximal inhibition (IC50).

Consider `CCSCC[C@@H](N)[C@H](O)C(=O)NNC(=O)c1ccc2ccccc2c1`, for which the midpoint of inhibition, the IC50, lay at 15 µM.

Consider `N[C@H](CC1CCCCC1)[C@H](O)C(=O)NCCc1ccc(Cl)cc1Cl`, for which half-maximal inhibition (IC50) required 63 µM.

Molecule `CN(Cc1cccc2ccccc12)C(=O)[C@@H](O)[C@H](N)CC1CCCCC1` came in with an IC50 of 78 µM.

`CCCSC[C@@H](N)[C@H](O)C(=O)NCCc1ccc(Cl)cc1Cl` displayed a half-inhibitory concentration (IC50) of 24 µM.

For the molecule `CCCSC[C@@H](N)[C@H](O)C(=O)NOc1ccccc1`, half-maximal inhibition (IC50) was put at 1.7 µM.

The molecule `CC(C)SCC[C@@H](N)[C@H](O)C(=O)NNC(=O)c1ccc2ccccc2c1` came in with an IC50 of 18 µM. This IC50 is about 11-fold higher than that of the molecule before.

`Cc1ccc(NNC(=O)[C@@H](O)[C@H](N)CCc2ccccc2)cc1`: the IC50 is 16 µM.

For `CCOC(=O)[C@H](C)NC(=O)C(O)[C@H](N)CCSCC` (stereo partly specified), the half-inhibitory concentration (IC50) was 69 µM.

Take `N[C@H](C1CCCCC1)[C@H](O)C(=O)NNC(=O)c1cccc(Cl)c1`: inhibition was half-maximal at 46 µM (IC50).

Molecule `CC(C)CSC[C@@H](N)[C@H](O)C(=O)N(C)Cc1cccc2ccccc12` registered a half-inhibitory concentration (IC50) of 19 µM.

For `CC(C)CSC[C@@H](N)[C@H](O)C(=O)NOc1ccccc1`, inhibition was half-maximal at 1.5 µM (IC50).

On to `C[C@H](NC(=O)[C@@H](O)[C@H](N)CC1CCCCC1)C(=O)O`, for which the IC50 was > 100 µM.

`N[C@H](C1CCCCC1)C(O)C(=O)NOc1ccccc1` (stereo partly specified): the half-inhibitory concentration (IC50) came to 95 µM.

Turning to `CCCSC[C@@H](N)C(O)C(=O)N[C@@H](C)C(=O)OCC` (stereo partly specified), 57 µM corresponded to half-maximal inhibition (IC50).

`Cc1ccc(NNC(=O)[C@@H](O)[C@H](N)CCSC(C)C)cc1`: the concentration for half-maximal inhibition (IC50) was determined as 11 µM.

As to `N[C@H](CC1CCCCC1)[C@H](O)C(=O)NCc1ccc2ccccc2c1`, it took 12 µM to reach half-maximal inhibition (IC50).

`N[C@H](C1CCCCC1)[C@H](O)C(=O)N[C@@H](CO)c1ccccc1` yielded a half-inhibitory concentration (IC50) of 79 µM.

Molecule `CC(C)SCC[C@@H](N)[C@H](O)C(=O)NNC(=O)c1cccc(Cl)c1` showed an IC50 of 56 µM. The IC50 values of the last two molecules are within 1.5-fold of each other.

In turn, `N[C@H](C1CCCCC1)[C@H](O)C(=O)NNc1cccc2ccccc12` returned an IC50 of 89 µM.

In the case of `CC(C)SCC[C@@H](N)[C@H](O)C(=O)N(C)Cc1cccc2ccccc12`, the IC50 was 81 µM.

The molecule `N[C@H](CC1CCCCC1)[C@H](O)C(=O)NNC(=O)c1ccc2ccccc2c1` registered a half-inhibitory concentration (IC50) of 63 µM.

`CC(C)CSC[C@@H](N)[C@H](O)C(=O)N[C@@H](CO)c1ccccc1`: half-maximal inhibition (IC50) was put at 11 µM.

`N[C@H](CCc1ccccc1)[C@H](O)C(=O)NNc1cccc2ccccc12` gave an IC50 of 93 µM.

`CC(C)CSC[C@@H](N)[C@H](O)C(=O)NNc1cccc2ccccc12`: half-maximal inhibition (IC50) required 34 µM.

Take `CCOC(=O)[C@H](C)NC(=O)[C@@H](O)[C@H](N)CC1CCCCC1`: half-maximal inhibition (IC50) required 84 µM.

In turn, `Cc1ccc(NNC(=O)[C@@H](O)[C@H](N)CC2CCCCC2)cc1` displayed an IC50 of 14 µM.

In the case of `N[C@H](CSCC1CCCCC1)[C@H](O)C(=O)NCCc1ccc(Cl)cc1Cl`, the IC50 is > 100 µM.

`CCSCC[C@@H](N)[C@H](O)C(=O)NNc1cccc2ccccc12` displayed an IC50 of 8.9 µM. This lies in the single-digit micromolar range.

In the case of `N[C@H](CC1CCCCC1)[C@H](O)C(=O)NNC(=O)c1cccc(Cl)c1`, the IC50 was > 100 µM.

As to `CCOC(=O)[C@H](C)NC(=O)C(O)[C@H](N)CC1CCCCC1` (stereo partly specified), inhibition was half-maximal at 84 µM (IC50).

With `CCOC(=O)[C@H](C)NC(=O)C(O)[C@H](N)CCC1CCCCC1` (stereo partly specified), 137 µM corresponded to half-maximal inhibition (IC50).

As to `COc1cccc(NC(=O)[C@@H](O)[C@H](N)CC2CCCCC2)c1`, the IC50 is 90 µM.

Consider `CC(C)SCC[C@@H](N)C(O)C(=O)NOc1ccccc1` (single isomer, unassigned), for which the IC50 is 4.7 µM.

For the molecule `C[C@H](NC(=O)C(O)[C@H](N)CCc1ccccc1)c1cccc2ccccc12` (single isomer, unassigned), inhibition was half-maximal at 12 µM (IC50). This IC50 lies about 2.6-fold higher than the previous one.

`N[C@H](C1CCCCCCC1)C(O)C(=O)NOc1ccccc1` (single isomer, unassigned): the IC50 was > 100 µM.

As for `CC(C)SCC[C@@H](N)C(O)C(=O)NCCc1ccc(Cl)cc1Cl` (single isomer, unassigned), the IC50 amounted to 69 µM.

Regarding `N[C@H](CCc1ccccc1)C(O)C(=O)NOc1ccccc1` (single isomer, unassigned), 13 µM corresponded to half-maximal inhibition (IC50).

For orientation: IC50 means the concentration needed to halve the response being measured.

The record behind these values is ChEMBL document CHEMBL1146676, “3-Amino-2-hydroxyamides and related compounds as inhibitors of methionine aminopeptidase-2” (Bioorg Med Chem Lett, 2004).
